Entries after “also recorded” stand apart in the source; their conditions may differ.
Assays:
Assay type in all cases: in vivo, rat
Seltzer model rats = assay: Nociceptive threshold in Seltzer model rats (Test Example 3, Randall-Selitto method); conditions: for nociceptive threshold of the nerve ligation group: 1 hour after final administration; for analgesic effect compared with carbamazepine: Compounds 1, 2: 1 mg/kg s.c., Compound 3 hydrochloride: 10 mg/kg oral, carbamazepine 10 mg/kg oral, 2 weeks
From the text: Fifty-eight, 7-week old male SD rats were anesthetized with pentobarbital (Nembutal injection (a registered trademark)), and the right sciatic nerve was exposed. In the nerve ligation group (48 rats), half of the dorsal portion of the nerve was ligated using 6-0 nylon suture. In Normal group (10 rats), the sciatic nerve was only exposed. From the following day of the model preparation, each test article (Compound 1, Compound 2 or Compound 3 hydrochloride) was repeatedly administered once a day for 2 weeks. Compound 1 (10 rats) and Compound 2 (10 rats) were administered subcutaneously, and Compound 3 hydrochloride (9 rats) and carbamazepine (10 rats) were administered orally. Control group (9 rats) and Normal group were subcutaneously administered physiological saline. One hour after the final administration of the test articles, the nociceptive threshold against pressure stimulation given to the right hind-paw of rats was measured by Randall-Selitto method, and compared with Control group.

[1] = tested on: STZ-induced diabetic rats; assay: Nociceptive threshold in STZ-induced diabetic rats, repeated subcutaneous administration over 10 weeks (Test Example 2, Randall-Selitto method); conditions: for nociceptive threshold after 14-day repeated administration: 0.1, 0.3 and 1 mg/kg subcutaneous once a day, right hind-paw pressure, vs Control group; for neuroprotective effects: concluded from controlled changes of nociceptive threshold over 10 weeks (early hyperalgesia, late hypoalgesia); for changes of the nociceptive threshold over 10 weeks after STZ administration (repeated-measures analysis of variance vs Control group): subcutaneous once a day, measured every 2 weeks until 10th week, P<0.05
Protocol: STZ (50 mg/kg) was administered intravenously to male SD stain rats to induce diabetes mellitus. From the following day of the STZ administration, test article (Compound 1 or 2) was administered subcutaneously once a day, repeatedly. Normal and Control groups were administered subcutaneously physiological saline (9-10 rats in each group). Before the STZ administration and every 2 weeks until the 10th week after STZ administration, the nociceptive threshold against pressure stimulation given to the right hind-paw of rats was measured by Randall-Selitto method, and compared with Control group.
The changes of the nociceptive thresholds (mean±SE) in each group over 10 weeks after administration of each drug are shown in FIG. 2 and FIG. 3.

[2] = tested on: STZ-induced diabetic rats; assay: Nociceptive threshold in STZ-induced diabetic rats, repeated oral administration (Test Example 1, Randall-Selitto method); conditions: Compound 3 hydrochloride 10 mg/kg oral twice a day, 14-day repeated administration, 1 hour after final administration, right hind-paw pressure, vs Control group
Protocol: STZ (50 mg/kg) was administered intravenously to 7-week old male SD stain rats to induce diabetes mellitus. From the following day of the STZ administration, test article (Compound 3 hydrochloride) was administered orally twice a day, repeatedly (10 rats in each group). Normal and Control groups were administered the medium (0.5% methylcellulose). The nociceptive threshold against pressure stimulation given to the right hind-paw of rats after 2 weeks administration (1 hour after the final administration) of test article was measured by Randall-Selitto method, and compared with Control group.

[3] = 1 mg/kg subcutaneous once a day for 2 weeks
[4] = 10 mg/kg oral once a day for 2 weeks

SMILES | nociceptive threshold of the nerve ligation group (Seltzer model rats; [3]) | analgesic effect compared with carbamazepine (Seltzer model rats) | nociceptive threshold after 14-day repeated administration [1] | neuroprotective effects [1] | changes of the nociceptive threshold over 10 weeks after STZ administration (repeated-measures analysis of variance vs Control group) ([1]; sodium salt) | changes of the nociceptive threshold over 10 weeks after STZ administration (repeated-measures analysis of variance vs Control group) ([1]; disodium salt) | nociceptive threshold of the nerve ligation group (Seltzer model rats; [4]) | nociceptive threshold [2]
C[C@H](Cc1ccc(OCC(=O)[O-])cc1)NC[C@H](O)c1cccc(Cl)c1.[Na+] [Compound 1] | significantly improved | comparable to that of carbamazepine | increased clearly in a dose-dependent manner at 0.3 mg/kg or above | have neuroprotective effects | significant differences in comparison with Control group; also recorded: significant difference | – | – | –
C[C@H](Cc1ccc2c(c1)OC(C(=O)[O-])(C(=O)[O-])O2)NC[C@H](O)c1cccc(Cl)c1.[Na+].[Na+] [Compound 2] | significantly improved | comparable to that of carbamazepine | increased clearly in a dose-dependent manner at 0.3 mg/kg or above | have neuroprotective effects | – | significant differences in comparison with Control group; also recorded: significant difference | – | –
Cc1cc(-c2ccc(C(=O)O)c(C(C)C)c2)cc(C)c1OCCN[C@@H](C)[C@H](O)c1ccc(O)cc1 [Compound 3, 4′-[2-[(1S,2R)-2-hydroxy-2-(4-hydroxyphenyl)-1-methylethylamino]ethoxy]-3-isopropyl-3′,5′-dimethylbiphenyl-4-carboxylic acid] | – | comparable to that of carbamazepine | – | – | – | – | significantly improved | increased remarkably
NC(=O)N1c2ccccc2C=Cc2ccccc21 [carbamazepine, reference compound] | – | – | – | – | – | – | analgesic effect | –

— patent US20090275626A1, “PHARMACEUTICAL COMPOSITION FOR PREVENTION OR TREATMENT OF NEUROGENIC PAIN” (KISSEI PHARMACEUTICAL CO., LTD., priority 2005, published 2009)
